Laboratory results reported in patent publication US8822517B2, “Arylosulfonamides for the treatment of CNS diseases” (Adamed SP. Z O.O., priority 2010, dated 2014).

Legend:
[1] = biological target: T1, serotoninergic 5-HT1A receptor (Homo sapiens, UniProt P08908); test: Binding assay 5-HT1A (h), [3H]8-OH-DPAT, HEK-293 cells; parameters: expressed in transfected cells; host or cells: HEK-293 cells; conditions: for inhibition at 1 µM: read-out: 5-HT1A
T1 sequence (P08908 1-422): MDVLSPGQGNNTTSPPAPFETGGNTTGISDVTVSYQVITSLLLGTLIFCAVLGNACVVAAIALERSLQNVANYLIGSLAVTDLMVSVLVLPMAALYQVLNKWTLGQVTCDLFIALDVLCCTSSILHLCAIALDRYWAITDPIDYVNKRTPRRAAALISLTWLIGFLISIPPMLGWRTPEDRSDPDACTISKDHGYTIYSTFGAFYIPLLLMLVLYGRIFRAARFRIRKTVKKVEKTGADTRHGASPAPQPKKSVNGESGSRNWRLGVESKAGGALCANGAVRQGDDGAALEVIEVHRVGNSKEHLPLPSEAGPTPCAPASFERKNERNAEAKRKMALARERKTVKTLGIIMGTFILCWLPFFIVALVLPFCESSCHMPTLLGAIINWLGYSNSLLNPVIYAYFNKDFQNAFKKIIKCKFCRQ
Summary of the method: (§1)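 Compounds tested at a single 1×10^−6 M concentration against the listed radioligands; bound label counted by scintillation, with non-specific binding defined by excess unlabelled ligand and subtracted from total.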

[2] = biological target: T2, serotonine transporter (SERT) receptor (Homo sapiens, UniProt P31645); test: Binding assay SERT (h), [3H]imipramine, CHO cells; conditions: for inhibition at 1 µM: read-out: SERT [%]
T2 construct: expressed in transfected cells; host or cells: CHO cells
Summary of the method: as §1

[3] = biological target: serotoninergic 5-HT2A receptor (Homo sapiens, UniProt P28223); test: Binding assay 5-HT2A (h), [3H]ketanserin, HEK-293 cells; parameters: expressed in transfected cells; host or cells: HEK-293 cells; conditions: for inhibition at 1 µM: read-out: 5-HT2A
Summary of the method: as §1

adrenergic α1 receptor = test: Binding assay α1 (non-selective), [3H]prazosin, rat cerebral cortex; conditions: percent inhibition of control specific binding; compounds tested at 1×10^−6 M
Summary of the method: as §1

dopaminergic D2 receptor = dopaminergic D2 receptor (Homo sapiens, UniProt P14416); test: Binding assay D2S (h), [3H]methyl-spiperone, HEK-293 cells; parameters: expressed in transfected cells; host or cells: HEK-293 cells; conditions: for inhibition at 1 µM: read-out: D2 [%]
Summary of the method: as §1

[4] = biological target: serotoninergic 5-HT6 receptor (Homo sapiens, UniProt P50406); test: Binding assay 5-HT6 (h), [3H]LSD, CHO cells; parameters: expressed in transfected cells; host or cells: CHO cells; conditions: for inhibition at 1 µM: read-out: 5-HT6
Summary of the method: as §1

dopaminergic D3 receptor = dopaminergic D3 receptor (Homo sapiens, UniProt P35462); test: Binding assay D3 (h), [3H]methyl-spiperone, CHO cells; parameters: expressed in transfected cells; host or cells: CHO cells; conditions: for inhibition at 1 µM: read-out: D3 [%]
Summary of the method: as §1

[5] = biological target: serotoninergic 5-HT7 receptor (Homo sapiens, UniProt P34969); test: Binding assay 5-HT7 (h), [3H]LSD, CHO cells; parameters: expressed in transfected cells; host or cells: CHO cells; conditions: for inhibition at 1 µM: read-out: 5-HT7
Summary of the method: as §1

[6] = percent inhibition of control specific binding, compounds tested at 1×10^−6 M

serotoninergic 5-HT7 receptor, sequence (P34969 whole entry): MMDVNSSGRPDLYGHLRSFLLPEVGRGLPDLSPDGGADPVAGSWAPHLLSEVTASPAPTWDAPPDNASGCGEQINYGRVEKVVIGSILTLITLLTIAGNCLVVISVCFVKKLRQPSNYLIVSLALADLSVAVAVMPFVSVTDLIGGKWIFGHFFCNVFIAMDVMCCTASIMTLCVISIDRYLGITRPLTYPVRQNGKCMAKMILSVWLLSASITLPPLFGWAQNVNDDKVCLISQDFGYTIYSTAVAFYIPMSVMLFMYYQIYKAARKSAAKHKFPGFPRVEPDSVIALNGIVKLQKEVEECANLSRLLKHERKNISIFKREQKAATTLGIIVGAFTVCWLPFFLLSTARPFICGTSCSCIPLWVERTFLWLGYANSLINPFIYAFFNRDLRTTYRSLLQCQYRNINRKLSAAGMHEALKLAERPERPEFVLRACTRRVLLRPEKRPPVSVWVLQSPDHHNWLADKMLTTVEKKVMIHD
serotoninergic 5-HT2A receptor, sequence (P28223 whole entry): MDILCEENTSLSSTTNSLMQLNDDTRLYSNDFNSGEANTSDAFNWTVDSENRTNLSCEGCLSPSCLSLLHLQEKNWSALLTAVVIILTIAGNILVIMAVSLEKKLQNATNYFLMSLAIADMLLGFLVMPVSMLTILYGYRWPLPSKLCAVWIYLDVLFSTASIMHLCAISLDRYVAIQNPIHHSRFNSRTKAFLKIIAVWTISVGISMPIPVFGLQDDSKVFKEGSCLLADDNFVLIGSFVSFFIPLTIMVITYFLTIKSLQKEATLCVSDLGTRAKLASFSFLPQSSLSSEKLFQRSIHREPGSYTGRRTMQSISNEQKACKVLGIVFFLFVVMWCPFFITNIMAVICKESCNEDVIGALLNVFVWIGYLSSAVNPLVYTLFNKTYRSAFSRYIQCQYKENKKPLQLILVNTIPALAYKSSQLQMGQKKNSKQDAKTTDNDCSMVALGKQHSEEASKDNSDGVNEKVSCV
serotoninergic 5-HT6 receptor, sequence (P50406 whole entry): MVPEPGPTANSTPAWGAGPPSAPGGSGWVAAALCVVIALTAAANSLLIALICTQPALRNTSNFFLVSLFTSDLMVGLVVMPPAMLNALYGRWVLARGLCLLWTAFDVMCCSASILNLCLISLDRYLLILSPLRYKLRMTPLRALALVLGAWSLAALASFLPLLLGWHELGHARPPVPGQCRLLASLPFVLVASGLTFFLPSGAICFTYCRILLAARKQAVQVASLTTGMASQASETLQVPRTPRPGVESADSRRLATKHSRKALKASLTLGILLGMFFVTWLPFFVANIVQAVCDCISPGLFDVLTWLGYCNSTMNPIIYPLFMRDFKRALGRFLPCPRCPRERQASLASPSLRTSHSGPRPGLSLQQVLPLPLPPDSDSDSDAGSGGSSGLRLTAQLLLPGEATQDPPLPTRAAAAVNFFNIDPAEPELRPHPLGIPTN
T2 sequence (P31645 whole entry): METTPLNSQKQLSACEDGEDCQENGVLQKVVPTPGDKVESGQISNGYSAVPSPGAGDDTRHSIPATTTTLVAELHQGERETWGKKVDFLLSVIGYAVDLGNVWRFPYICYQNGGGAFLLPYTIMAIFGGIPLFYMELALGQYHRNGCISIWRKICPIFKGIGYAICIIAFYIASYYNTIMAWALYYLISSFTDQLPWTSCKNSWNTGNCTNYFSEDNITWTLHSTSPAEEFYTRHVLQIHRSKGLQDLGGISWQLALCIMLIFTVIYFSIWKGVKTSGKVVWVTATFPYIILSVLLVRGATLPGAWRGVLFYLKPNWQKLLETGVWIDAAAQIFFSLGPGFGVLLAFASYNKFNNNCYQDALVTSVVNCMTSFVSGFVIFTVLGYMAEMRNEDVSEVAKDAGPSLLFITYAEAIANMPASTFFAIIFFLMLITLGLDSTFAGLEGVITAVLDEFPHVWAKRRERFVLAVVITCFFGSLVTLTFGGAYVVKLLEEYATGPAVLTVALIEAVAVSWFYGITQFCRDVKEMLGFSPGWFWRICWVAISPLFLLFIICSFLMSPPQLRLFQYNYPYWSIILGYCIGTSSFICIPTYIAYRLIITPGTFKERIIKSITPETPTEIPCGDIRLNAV
dopaminergic D3 receptor, sequence (P35462 whole entry): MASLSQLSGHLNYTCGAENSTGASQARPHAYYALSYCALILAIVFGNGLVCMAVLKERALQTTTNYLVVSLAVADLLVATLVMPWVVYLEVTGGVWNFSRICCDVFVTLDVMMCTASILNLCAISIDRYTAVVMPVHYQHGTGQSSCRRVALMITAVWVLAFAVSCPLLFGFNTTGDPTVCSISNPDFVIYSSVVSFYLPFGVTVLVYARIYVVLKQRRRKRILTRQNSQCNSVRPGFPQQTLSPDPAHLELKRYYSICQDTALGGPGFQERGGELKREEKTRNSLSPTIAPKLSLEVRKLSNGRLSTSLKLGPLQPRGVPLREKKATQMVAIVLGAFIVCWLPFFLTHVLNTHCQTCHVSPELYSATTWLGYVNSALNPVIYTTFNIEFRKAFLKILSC
dopaminergic D2 receptor, sequence (P14416 1-414 isoform P14416-2): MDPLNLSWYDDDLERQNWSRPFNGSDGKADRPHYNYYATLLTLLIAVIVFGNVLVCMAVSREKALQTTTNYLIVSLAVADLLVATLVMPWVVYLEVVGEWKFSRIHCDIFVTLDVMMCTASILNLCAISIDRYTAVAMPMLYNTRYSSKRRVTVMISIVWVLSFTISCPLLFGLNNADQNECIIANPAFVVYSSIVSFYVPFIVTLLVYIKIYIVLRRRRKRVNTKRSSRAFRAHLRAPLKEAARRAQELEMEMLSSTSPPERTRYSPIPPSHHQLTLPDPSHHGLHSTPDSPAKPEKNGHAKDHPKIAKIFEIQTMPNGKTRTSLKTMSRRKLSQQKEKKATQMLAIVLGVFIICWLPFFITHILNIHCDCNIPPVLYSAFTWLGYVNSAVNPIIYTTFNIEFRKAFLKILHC

## Cc1cccc(S(=O)(=O)NCCCN2CCN(c3cccc4[nH]c(=O)[nH]c34)CC2)c1 [Compound 426, 3-Methyl-N-[3-[4-(2-oxo-1,3-dihydrobenzimidazol-4-yl)piperazin-1-yl]propyl]benzenesulphonamide]
[1]
  inhibition at 1 µM: 79%
[2]
  inhibition at 1 µM: -18%
[3]
  inhibition at 1 µM: 20%
Adrenergic α1 receptor
  α1 [%]: 67%
Dopaminergic D2 receptor
  inhibition at 1 µM: 28%
[4]
  inhibition at 1 µM: -4%
Dopaminergic D3 receptor
  inhibition at 1 µM: 94%
[5]
  inhibition at 1 µM: 85%

## O=C1COc2c(cccc2N2CCN(CCCCNS(=O)(=O)c3ccc4ccccc4c3)CC2)N1 [Compound 427, N-[4-[4-(3-oxo-4H-1,4-benzoxazin-8-yl)piperazin-1-yl]butyl]naphthalene-2-sulphonamide]
[1]
  inhibition at 1 µM: 84%
[2]
  inhibition at 1 µM: 13%
[3]
  inhibition at 1 µM: 49%
Adrenergic α1 receptor
  α1 [%]: 86%
Dopaminergic D2 receptor
  inhibition at 1 µM: 83%
[4]
  inhibition at 1 µM: 36%
Dopaminergic D3 receptor
  inhibition at 1 µM: 104%
[5]
  inhibition at 1 µM: 98%

## O=C1COc2c(cccc2N2CCN(CCCCNS(=O)(=O)c3ccc(F)cc3)CC2)N1 [Compound 428, 4-Fluoro-N-[4-[4-(3-oxo-4H-1,4-benzoxazin-8-yl)piperazin-1-yl]butyl]benzenesulphonamide]
[1]
  inhibition at 1 µM: 90%
[2]
  inhibition at 1 µM: 23%
[3]
  inhibition at 1 µM: 30%
Adrenergic α1 receptor
  α1 [%]: 72%
Dopaminergic D2 receptor
  inhibition at 1 µM: 78%
[4]
  inhibition at 1 µM: 33%
Dopaminergic D3 receptor
  inhibition at 1 µM: 104%
[5]
  inhibition at 1 µM: 78%

## O=C1COc2c(cccc2N2CCN(CCCCNS(=O)(=O)c3ccc(C(F)(F)F)cc3)CC2)N1 [Compound 429, N-[4-[4-(3-oxo-4H-1,4-benzoxazin-8-yl)piperazin-1-yl]butyl]-4-(trifluoromethyl)benzenesulphonamide]
[1]
  inhibition at 1 µM: 88%
[2]
  inhibition at 1 µM: 22%
[3]
  inhibition at 1 µM: 35%
Adrenergic α1 receptor
  α1 [%]: 78%
Dopaminergic D2 receptor
  inhibition at 1 µM: 61%
[4]
  inhibition at 1 µM: -57%
Dopaminergic D3 receptor
  inhibition at 1 µM: 104%
[5]
  inhibition at 1 µM: 83%

## O=C1COc2c(cccc2N2CCN(CCCCNS(=O)(=O)c3cccc(C(F)(F)F)c3)CC2)N1 [Compound 430, N-[4-[4-(3-oxo-4H-1,4-benzoxazin-8-yl)piperazin-1-yl]butyl]-3-(trifluoromethyl)benzenesulphonamide]
[1]
  inhibition at 1 µM: 86%
[2]
  inhibition at 1 µM: 19%
[3]
  inhibition at 1 µM: 87%
Adrenergic α1 receptor
  α1 [%]: 46%
Dopaminergic D2 receptor
  inhibition at 1 µM: 69%
[4]
  inhibition at 1 µM: 94%
Dopaminergic D3 receptor
  inhibition at 1 µM: 101%
[5]
  inhibition at 1 µM: 84%

## O=C1COc2c(cccc2N2CCN(CCCCNS(=O)(=O)c3ccc(Cl)s3)CC2)N1 [Compound 431, 5-Chloro-N-[4-[4-(3-oxo-4H-1,4-benzoxazin-8-yl)piperazin-1-yl]butyl]thiophene-2-sulphonamide]
[1]
  inhibition at 1 µM: 101%
[2]
  inhibition at 1 µM: 12%
[3]
  inhibition at 1 µM: 31%
Adrenergic α1 receptor
  α1 [%]: 88%
Dopaminergic D2 receptor
  inhibition at 1 µM: 68%
[4]
  inhibition at 1 µM: 35%
Dopaminergic D3 receptor
  inhibition at 1 µM: 103%
[5]
  inhibition at 1 µM: 67%

## O=S(=O)(NCCCN1CC=C(c2c[nH]c3ccc(F)cc23)CC1)c1cccc(O)c1 [Compound 437, N-[3-[4-(5-Fluoro-1H-indol-3-yl)-3,6-dihydro-2H-pyridin-1-yl]propyl]-3-hydroxybenzenesulphonamide]
[1]
  inhibition at 1 µM: 24%
[2]
  inhibition at 1 µM: 105%
[3]
  inhibition at 1 µM: 74%
Adrenergic α1 receptor
  α1 [%]: 52%
Dopaminergic D2 receptor
  inhibition at 1 µM: 57%
[4]
  inhibition at 1 µM: 47%
Dopaminergic D3 receptor
  inhibition at 1 µM: 100%
[5]
  inhibition at 1 µM: 83%

## Cc1[nH]c2ccc(Cl)cc2c1C1=CCN(CCCNS(=O)(=O)c2cccc3ccccc23)CC1 [Compound 441, N-[3-[4-(5-Chloro-2-methyl-1H-indol-3-yl)-3,6-dihydro-2H-pyridin-1-yl]propyl]-naphthalene-1-sulphonamide]
[1]
  inhibition at 1 µM: 54%
[2]
  inhibition at 1 µM: 1%
[3]
  inhibition at 1 µM: 57%
Adrenergic α1 receptor
  α1 [%]: 16%
Dopaminergic D2 receptor
  inhibition at 1 µM: 77%
[4]
  inhibition at 1 µM: 84%
Dopaminergic D3 receptor
  inhibition at 1 µM: 72%
[5]
  inhibition at 1 µM: 82%

## Cc1[nH]c2ccc(Cl)cc2c1C1=CCN(CCCNS(=O)(=O)c2ccc(F)cc2)CC1 [Compound 443, N-[3-[4-(5-Chloro-2-methyl-1H-indol-3-yl)-3,6-dihydro-2H-pyridin-1-yl]propyl]-4-fluorobenzenesulphonamide]
[1]
  inhibition at 1 µM: 59%
[2]
  inhibition at 1 µM: -9%
[3]
  inhibition at 1 µM: 67%
Adrenergic α1 receptor
  α1 [%]: 41%
Dopaminergic D2 receptor
  inhibition at 1 µM: 22%
[4]
  inhibition at 1 µM: 92%
Dopaminergic D3 receptor
  inhibition at 1 µM: 71%
[5]
  inhibition at 1 µM: 54%

## Cc1[nH]c2ccc(Cl)cc2c1C1=CCN(CCNS(=O)(=O)c2cccc3ccccc23)CC1 [Compound 447, N-[2-[4-(5-Chloro-2-methyl-1H-indol-3-yl)-3,6-dihydro-2H-pyridin-1-yl]ethyl]-naphthalene-1-sulphonamide]
[1]
  inhibition at 1 µM: 42%
[2]
  inhibition at 1 µM: 23%
[3]
  inhibition at 1 µM: 19%
Adrenergic α1 receptor
  α1 [%]: 1%
Dopaminergic D2 receptor
  inhibition at 1 µM: 3%
[4]
  inhibition at 1 µM: 106%
Dopaminergic D3 receptor
  inhibition at 1 µM: -17%
[5]
  inhibition at 1 µM: 34%

## Cc1[nH]c2ccc(Cl)cc2c1C1=CCN(CCNS(=O)(=O)c2ccc(F)cc2)CC1 [Compound 449, N-[2-[4-(5-Chloro-2-methyl-1H-indol-3-yl)-3,6-dihydro-2H-pyridin-1-yl]ethyl]-4-fluorobenzenesulphonamide]
[1]
  inhibition at 1 µM: 57%
[2]
  inhibition at 1 µM: 21%
[3]
  inhibition at 1 µM: 76%
Adrenergic α1 receptor
  α1 [%]: 12%
Dopaminergic D2 receptor
  inhibition at 1 µM: 31%
[4]
  inhibition at 1 µM: 93%
Dopaminergic D3 receptor
  inhibition at 1 µM: 34%
[5]
  inhibition at 1 µM: 81%

## N-[4-[4-(1H-Indol-4-yl)piperazin-1-yl]butyl]-1,3-benzodioxole-5-sulphonamide [Compound 365]
[1]; [6]
  5-HT1A: 90%
[2]; [6]
  SERT [%]: 25%
[3]; [6]
  5-HT2A: 55%
Adrenergic α1 receptor
  α1 [%]: 100%
Dopaminergic D2 receptor; [6]
  D2 [%]: 99%
[4]; [6]
  5-HT6: 67%
Dopaminergic D3 receptor; [6]
  D3 [%]: 100%
[5]; [6]
  5-HT7: 95%
